Assay results published in patent US20030194750A1, “Methods for treatment of diseases where GSK 3-beta is desired, and methods to identify compounds usefule for that” (priority 2002, published 2003).
Where a name gives a salt, the structure may show the parent alone.

Key:
[1] = system: GSK3β; assay: Western blot of GSK3β-phospho-ser9 in SW480 cells; assay type: cell-based, human; conditions: various concentrations, 48 hours, vs 0 concentration
Description: (§1) 50 μg protein/lane were analyzed by Western blot analysis using specific anti-PKG1β and anti-GSK3β-phospho-ser9 antibodies.

[2] = system: PKG1β; assay: Western blot of PKG1β in SW480 cells; assay type: cell-based, human; conditions: various concentrations, 48 hours
Description: as §1

[3] = target: T1, GST-cGB-PDE5 fusion protein (Homo sapiens, UniProt O76074); assay: cGMP binding assay with GST-cGB-PDE5 fusion protein; conditions: 3H-cGMP 2 μM, 22° C., 1 hour
T1 construct: made in house; host or cells: E. coli BL21 (DE3)
Description: 5′-3′, Inc. kits for total RNA followed by oligo (dT) column purification of mRNA are used with HT-29 cells. […] It is then cloned into pGEX-5X-3 glutathione-S-transferase (GST) fusion vector (Pharmacia Biotech) with tac promoter, and EcoRI and XhoI cut sites. The fusion vector is then transfected into E. Coli BL21 (DE3) bacteria (Invitrogen). The transfected BL21 bacteria is grown to log phase, and then IPTG is added as an inducer. The induction is carried at 20° C. for 24 hrs. The bacteria are harvested and lysed. The soluble cell lysate is incubated with GSH conjugated Sepharose 4B (GSH-Sepharose 4B). The GST-cGB-PDE5 fusion protein can bind to the GSH-Sepharose beads, and the other proteins are washed off from beads with excessive cold PBS.
Then, the mixture is transferred to Brandel MB-24 cell harvester with GF/B as the filter membrane followed by 2 washes with 10 mL of cold 5 mM potassium buffer( pH 6.8). The membranes are then cut out and transferred to scintillation vials followed by the addition of 1 mL of H2O and 6 mL of Ready Safe™ liquid scintillation cocktail to each vial. The vials are counted on a Beckman LS 6500 scintillation counter.
The quenching by filter membrane or other debris are also calibrated.

[4] = target: PDE 5 (Homo sapiens, UniProt O76074); assay: Competitive (with cGMP) binding to PDE5
[5] = system: PDE1; assay: PDE inhibition, similar protocols; assay type: biochemical
[6] = system: PDE4; assay: PDE inhibition, similar protocols; assay type: biochemical
[7] = system: rats; assay: Acute toxicity study in rats; conditions: rat, in vivo
[8] = system: dogs; assay: Acute and seven-dose toxicity in dogs; conditions: dog, in vivo
Description: Therefore, these dogs were subsequently administered seven consecutive doses of 1000 mg/kg/day.

[9] = system: rats; assay: Seven-day dose-range finding study in rats; assay type: in vivo, rat; conditions: 7 days
[10] = system: rats; assay: 28-day study in rats; assay type: in vivo, rat
Description: A 28-day study in rats was also carried out at 0, 50, 500 and 2000 mg/kg/day.

[11] = system: rats; assay: Long-term (91-day) safety assessment study in rats; assay type: in vivo, rat
Text: These changes were not associated with any gross clinical abnormality.

[12] = system: dogs; assay: 91-day oral study in dogs; assay type: in vivo, dog
[13] = system: human patients; assay: Single, escalating dose human clinical safety study; assay type: in vivo; conditions: oral, 50 mg BID, 100 mg BID, 200 mg BID and 400 mg BID
[14] = 28 days, 50, 500 and 2000 mg/kg/day
[15] = 91 days, highest dose group (300 mg/kg/day)

With `CC1=C(CC(=O)NCc2ccccc2)c2cc(F)ccc2/C1=C\c1ccncc1` [Example 38, (Z)-5-Fluoro-2-Methyl-(4-Pyridylidene)-3-(N-Benzyl) Indenylacetamide Hydrochloride] the “GSK3β inactivation by Ser9 phosphorylation” value [1] was “inactivated in vivo by phosphorylation of its Ser9”, the PKG1 induction [2] was “PKG1 induction in a dose-dependent manner” and the “competition with cGMP for the cGMP binding sites” value [3] was “does not bind to the cGMP-binding site of PDE5”. The “competitive binding with cGMP to PDE5” value [4] was “does competitively (with cGMP) bind to PDE 5”, the IC50 [5] was 3000 nM and the IC50 [6] was 6 µM. For the same molecule, the body weight gain ([7]; ip, 1000 mg/kg) was “reduced body weight gain”, the necropsy findings ([7]; ip, 1000 mg/kg) was “mesenteric adhesions seen in some animals” and the body weight gains ([7]; po, 2000 mg/kg) was “slightly reduced”. For the same molecule, the signs of toxicity ([8]; 1000 mg/kg) was “no signs of toxicity”, the “signs of drug-related effects” value ([8]; 1000 mg/kg/day) was “At no time in either dosing phase were any obvious signs of drug-related effects observed” and the signs of toxicity ([9]; 50 mg/kg/day) was “no observable signs of toxicity”. The treatment-related effects ([9]; 500 mg/kg/day) was “an increase in absolute and relative liver weights in female rats”, the treatment-related effects ([9]; 2000 mg/kg/day) was “labored breathing and/or abnormal respiratory sounds, decreased weights gains and food consumption in male rats, and increased liver weights in female rats” and the “hematology, blood chemistry, microscopic pathology” value ([9]; any dose level (50, 500, 2000 mg/kg/day)) was “No hematological or blood chemistry changes nor any microscopic pathology changes”. For the same molecule, the “macroscopic tissue changes at necropsy” value ([10]; 28 days) was “No macroscopic tissue changes”, the “histopathological evaluation of tissues” value ([10]; 28 days, 500 mg/kg/day) was “one female at 500 mg/kg/day had increased mitotic figures in the thyroid gland” and the liver weights ([10]; 28 days, 2000 mg/kg/day) was “statistically significant increase in liver weights”. For the same molecule, the thyroid weights ([10]; 28 days, 2000 mg/kg/day) was “statistically significant increases in thyroid weights”, the “body weight changes, ophthalmoscopic examinations, hematological and blood chemistry values, urinalysis” value [10, 14] was “unremarkable” and the clinical observations [10, 14] was “no abnormal clinical observations”. For the same molecule, the “liver and thyroid weight increases at the lower doses” value ([10]; 28 days, 50 and 500 mg/kg/day) was “not statistically significant”, the “histopathological evaluation of tissues” value ([10]; 28 days, generally limited to a small number of animals at 2000 mg/kg/day) was “traces of follicular cell hypertrophy, increased numbers of mitotic figures (suggestive of possible cell proliferation) in the thyroid gland and mild centrilobular hypertrophy in the liver” and the “clinical biochemistry and hematology” value ([11]; 91 days) was “no changes in clinical biochemistry and hematology were evident”. The thyroid microscopy ([11]; 91 days, 500 mg/kg/day) was “follicular cell hypertrophy”, the kidney microscopy ([11]; 91 days, 200 and 500 mg/kg/day) was “increase in accumulation of hyalin droplets in the kidneys” and the liver microscopy ([11]; 91 days, 200 and 500 mg/kg/day) was “slight hepatocellular hypertrophy”. The “liver and thyroid/parathyroid weights” value ([11]; 91 days, males and females at 200 and 500 mg/kg/day) was “dose-related trend to increased liver and thyroid/parathyroid weights”, the toxicological effects overall ([11]; oral, 91 consecutive days, 50, 200 and 500 mg/kg/day) was “did not produce any major toxicological effects” and the “route of elimination (suggested by feces colour)” value ([12]; 91 days oral) was “most of Compound 38 was being eliminated via the feces”. For the same molecule, the feces observation ([12]; 91 days, 150 and 300 mg/kg/day) was “Orange discoloration of the feces”, the liver microscopy ([12]; 91 days, highest dose group) was “no microscopic alterations” and the body weights [12, 15] was “Slightly lowered body weights”. For the same molecule, the liver weights [12, 15] was “increased liver weights”, the toxicological effects overall ([12]; oral, 91 consecutive days, 50, 150 and 300 mg/kg/day) was “no toxicological effects” and the side effects [13] was “no significant side effects at any dose”.
